Reference: US9993447B2, “Systems and methods for increasing agmatine cellular uptake by oral administration” (priority 2015, dated 2018)

Tests used:
[1] = pH of 1% agmatine salt solutions in purified water at room temperature; format: physicochemical; details: 1% in purified water
Source text: Compounds and formulations according to embodiments of the present disclosure may provide a method to increase cellular uptake of agmatine in an animal or human. It should be appreciated that agmatine uptake may increase dramatically with increasing pH, and protonation of the amino group of agmatine is dependent on pH. The guanidinium group in agmatine has a pH of about 12.5 in aqueous solution while the amino group in agmatine has a pH of about 9. At the physiological pH, agmatine may be protonated and thus, requires transporters for uptake into the cells to occur. The fraction of the molecules having a single positive charge may increase as pH increases. […] This is reflected in FIGS. 1 and 2.

[2] = approximately 150 g over three days, oral; cited from earlier work
[3] = Titration of 1% agmatine salt solutions with aqueous 0.1N HCl; format: physicochemical; details: 1% solution titrated with 0.1N HCl
Method: FIG. 1 depicts a graphical representation of 1% agmatine salt solutions in a titration with an aqueous 0.1N HCl solution according to an embodiment of the present disclosure;
(§1) The pH dependence has been evaluated in acidic as well as basic conditions. […] About 15 mL of 0.1N HCl may be used to lower the pH of agmatine phosphate at around 3 while other agmatine salts, at the same concentration and in the same measuring conditions, required approximately 2-4 mL to change to an acidic pH. The same kind of behavior was observed when solutions of agmatine salts were titrated with a solution of agmatine base. About 20 mL were required to make the pH alkaline (above 8) in the case of agmatine phosphate, while other agmatine salts required approximately 2-3 mL to achieve the same pH range. Taking these observations into consideration along with the fact that better uptake of agmatine is observed at a higher pH, it should be appreciated that agmatine dihydrochloride and agmatine phosphate may be more desirable agmatine salts than agmatine sulfate for improving bioavailability of orally administered agmatine.

[4] = Titration of 1% agmatine salt solutions with 5% aqueous arginine base; format: physicochemical; details: 1% solution titrated with 5% arginine base, room temperature
Method: FIG. 2 depicts a graphical representation of 1% agmatine salt solutions in a titration with an 5% aqueous arginine base solution at room temperature according to an embodiment of the present disclosure;
as §1

[5] = oral, with high-intensity periodized resistance training; cited from earlier work
[6] = pH of buffer media; format: physicochemical; details: room temperature
Source text: Crea-Trona® is also known as buffered creatine. During the fabrication process, AlzChem uses a double buffer from sodium carbonate and sodium bi-carbonate, both natural minerals, which creates an alkaline environment with a pH value between 8 and 12. Crea-Trona is more efficient than other types of creatine, including those with an alkaline pH-buffer (kre-alkalynes). The double buffer prevents the pH-value in the muscles from dropping rapidly during the workout. This may lead to a larger training volume and may stimulate faster recovery of the original pH-value after the workout.
To maximize the benefits of oral administration of agmatine salts according to embodiments of the present disclosure, a buffer media may be used in formulations, or a stable mono-protonated or neutral form of such agmatine salts should be administered instead. As reflected in the formulations described above according to embodiments of the present disclosure, different buffer media have been used including Crea-Trona (such as that offered by AlzChem), arginine base, as well as Effer-Soda (such as that offered by SPI Pharma). However, it should be appreciated that other buffer media, such as potassium carbonate or potassium bicarbonate, may be utilized without departing from the present disclosure. Such buffer media may elevate the pH of the formulation. […]

[7] = 300 mg daily for 6 weeks, young healthy trained athletes; cited from earlier work
[8] = prior intake, trained young men; cited from earlier work
[9] = cited from earlier work
[10] = concentration of 1 mM; cited from earlier work
[11] = test system: rat; details: rat experimental model; cited from earlier work

## Cl.Cl.N=C(N)NCCCCN [agmatine dihydrochloride]
[1]
  pH of 1% agmatine salt solution: 6.4

## O=C[C@H](O)[C@H](O)[C@H](O)CO [D-ribose]
[2]
  Rate of ATP replenishment over three days of rest compared to placebo sugar (maltodextrin): greater

## N=C(N)NCCCCN.O=P(O)(O)O [agmatine phosphate]
[1]
  pH of 1% agmatine salt solution: 5.7
[3]
  Volume of 0.1N HCl used to lower the pH to around 3 (acidic pH): About 15 mL
[4]
  Volume of base solution required to make the pH alkaline (above 8): About 20 mL

## Nc1ncnc2c1ncn2[C@@H]1O[C@H](COP(=O)(O)OP(=O)(O)OP(=O)(O)O)[C@@H](O)[C@H]1O [ATP, adenosine triphosphate]
[5]
  Muscle mass, strength, and power compared with placebo-matched control: increases muscle mass, strength, and power

## N=C(N)NCCC[C@H](N)C(=O)O [Arginine base, arginine]
[6]
  pH of arginine base in solution: around 10

## COc1c(O)c(C)c(C/C=C(\C)CC/C=C(\C)CC/C=C(\C)CC/C=C(\C)CC/C=C(\C)CC/C=C(\C)CC/C=C(\C)CC/C=C(\C)CC/C=C(\C)CCC=C(C)C)c(O)c1OC [Ubiquinol, ubiquinol]
[7]
  Maximum power output versus placebo: +0.08 W/kg bw
  Maximum power output versus placebo, relative change: +2.5%

## N=C(N)NCCCCN.O=S(=O)(O)O [agmatine sulfate, reference compound]
[1]
  pH of 1% agmatine salt solution: 4.8

## O=C([O-])O.[Na+] [sodium bicarbonate]
[8]
  High-intensity intermittent exercise performance: improved

## N=C(N)NCCCCN [agmatine, (4-aminobutyl)guanidine]
[9]
  pKa value of the guanadino group: 12.5
[10]
  Cytotoxic effects: no cytotoxic effects
[11]
  Lethal dose: 1 to 10 mg/kg
